Measured values published in the supplement of paper PMC11208160.

assay: recombinant UMI read abundance after kanamycin selection (control-corrected) (log10(CPM+1)); higher = more efficient recombination; extreme values may be limits of the assay; sequences stand for … in AGTGCAGAGAAAATCGGCCAGTTTTCTCTGCCTGCAGTCCGCATGCCGTGGGACCCCTTGGGTTCTAACCTGTTGCCTAGATTTATGCAGCGGACTGCCTTTCTCCCAAAGTGATAAACCGG…AGGTTGGTTTCACT; site = the 11-nt donor
Summary of the method: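 Pooled Escherichia coli screen of donor and donor-binding-loop pairs for the IS621 bridge recombinase. Each pair sits with a 12-nt UMI on a plasmid carrying a promoterless kanamycin gene. The library was co-electroporated with a target plasmid encoding a fixed target and T7-inducible recombinase, then plated with IPTG (0.07 mM) plus kanamycin, or unselected, each in two replicates. Recombinant UMIs were PCR-amplified across the donor–target junction and sequenced. Counts became CPM, averaged over replicates, scaled by control-derived factors and reported as log10(CPM+1).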
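Note: IS621 bridge recombinase in Escherichia coli cells against a fixed T5 target plasmid.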

With “CCCATACCATGGACCGGTTTTCCCGGTAATCCGTATTTGTC (site CCCATAGCTGA)” as the sequence, how does the “recombinant UMI read abundance (log10)” value read?
The value was 0.

For “CCCATACCATGGACCGGTTTTCCCGGTAATCCGTATTTGTC (site CCCATATCTGA)”, which “recombinant UMI read abundance (log10)” value is on record?
Its value is 0.

Which “recombinant UMI read abundance (log10)” value does the source give for “CCCATATCATGGACCGGTTTTCCCGGTAATCCGTATTTGAC (site CCCATATCTGA)” here?
The value was 0.

Which “recombinant UMI read abundance (log10)” value does the source give for “CCCATATCATGGACCGGTTTTCCCGGTAATCCGTATTTGAC (site CCCATATCTGC)” here?
Its value is 0.

Which “recombinant UMI read abundance (log10)” value does the source give for “CCCATATCATGGACCGGTTTTCCCGGTAATCCGTATTTGAC (site CCCATATCTGG)” here?
The value was 0.

Which “recombinant UMI read abundance (log10)” value does the source give for “CCCATATCATGGACCGGTTTTCCCGGTAATCCGTATTTGAC (site CCCATATCTGT)” here?
Its value is 0.446.

With “CCCATCTCATGGACCGGTTTTCCCGGTAATCCGTATTTGTA (site CCCATCTCTTA)” as the sequence, how does the “recombinant UMI read abundance (log10)” value read?
The value was 1.97.

For “CCCCACACATGGACCGGTTTTCCCGGTAATCCGTATTTGTC (site CCCCACACTAA)”, which “recombinant UMI read abundance (log10)” value is on record?
Its value is 0.316.

Which “recombinant UMI read abundance (log10)” value does the source give for “CCCCACACATGGACCGGTTTTCCCGGTAATCCGTATTTGTC (site CCCCACACTCA)” here?
Its value is 0.235.

For “CCCCACACATGGACCGGTTTTCCCGGTAATCCGTATTTGTC (site CCCCACACTGA)”, which “recombinant UMI read abundance (log10)” value is on record?
The value was 2.39.

With “CCCCACACATGGACCGGTTTTCCCGGTAATCCGTATTTGTC (site CCCCACACTTA)” as the sequence, how does the “recombinant UMI read abundance (log10)” value read?
The value was 0.335.

For “CCCCACACATGGACCGGTTTTCCCGGTAATCCGTATTTGTT (site CCCCACACTAA)”, which “recombinant UMI read abundance (log10)” value is on record?
The value was 0.634.

For “CCCCACACATGGACCGGTTTTCCCGGTAATCCGTATTTGTT (site CCCCACACTCA)”, which “recombinant UMI read abundance (log10)” value is on record?
The value was 0.35.

For “CCCCACACATGGACCGGTTTTCCCGGTAATCCGTATTTGTT (site CCCCACACTGA)”, which “recombinant UMI read abundance (log10)” value is on record?
Its value is 0.246.

Which “recombinant UMI read abundance (log10)” value does the source give for “CCCCACACATGGACCGGTTTTCCCGGTAATCCGTATTTGTT (site CCCCACACTTA)” here?
The value was 0.396.

Which “recombinant UMI read abundance (log10)” value does the source give for “CCCCGAGCATGGACCGGTTTTCCCGGTAATCCGTATTTGCA (site CCCCGAGCTTG)” here?
Its value is 0.798.

With “CCCCGCACATGGACCGGTTTTCCCGGTAATCCGTATTTGGA (site CCCCGCACTTC)” as the sequence, how does the “recombinant UMI read abundance (log10)” value read?
Its value is 0.0136.

With “CCCCTATCATGGACCGGTTTTCCCGGTAATCCGTATTTGTC (site CCCATATCTGA)” as the sequence, how does the “recombinant UMI read abundance (log10)” value read?
The value was 0.

For “CCCCTATCATGGACCGGTTTTCCCGGTAATCCGTATTTGTC (site CCCCTATCTGA)”, which “recombinant UMI read abundance (log10)” value is on record?
The value was 1.82.

For “CCCCTATCATGGACCGGTTTTCCCGGTAATCCGTATTTGTC (site CCCGTATCTGA)”, which “recombinant UMI read abundance (log10)” value is on record?
Its value is 0.

Which “recombinant UMI read abundance (log10)” value does the source give for “CCCCTATCATGGACCGGTTTTCCCGGTAATCCGTATTTGTC (site CCCTTATCTGA)” here?
The value was 0.

With “CCCGACTCATGGACCGGTTTTCCCGGTAATCCGTATTTGAA (site CCCGACTCTTT)” as the sequence, how does the “recombinant UMI read abundance (log10)” value read?
The value was 1.35.

For “CCCGATCCATGGACCGGTTTTCCCGGTAATCCGTATTTGCA (site CCCGATCCTTG)”, which “recombinant UMI read abundance (log10)” value is on record?
Its value is 0.

With “CCCGATCCATGGACCGGTTTTCCCGGTAATCCGTATTTGCA (site CCCGCTCCTTG)” as the sequence, how does the “recombinant UMI read abundance (log10)” value read?
Its value is 0.

Which “recombinant UMI read abundance (log10)” value does the source give for “CCCGATCCATGGACCGGTTTTCCCGGTAATCCGTATTTGCA (site CCCGGTCCTTG)” here?
The value was 0.

For “CCCGATCCATGGACCGGTTTTCCCGGTAATCCGTATTTGCA (site CCCGTTCCTTG)”, which “recombinant UMI read abundance (log10)” value is on record?
Its value is 0.

With “CCCGCTCCATGGACCGGTTTTCCCGGTAATCCGTATTTGCA (site CCCGATCCTTG)” as the sequence, how does the “recombinant UMI read abundance (log10)” value read?
Its value is 0.

For “CCCGCTCCATGGACCGGTTTTCCCGGTAATCCGTATTTGCA (site CCCGCTCCTTG)”, which “recombinant UMI read abundance (log10)” value is on record?
The value was 0.

With “CCCGCTCCATGGACCGGTTTTCCCGGTAATCCGTATTTGCA (site CCCGGTCCTTG)” as the sequence, how does the “recombinant UMI read abundance (log10)” value read?
Its value is 0.

Which “recombinant UMI read abundance (log10)” value does the source give for “CCCGCTCCATGGACCGGTTTTCCCGGTAATCCGTATTTGCA (site CCCGTTCCTTG)” here?
Its value is 0.

With “CCCGGACCATGGACCGGTTTTCCCGGTAATCCGTATTTGCA (site CCCGGACCTTG)” as the sequence, how does the “recombinant UMI read abundance (log10)” value read?
Its value is 0.

Which “recombinant UMI read abundance (log10)” value does the source give for “CCCGGACCATGGACCGGTTTTCCCGGTAATCCGTATTTGCA (site CCCGGCCCTTG)” here?
Its value is 0.

Which “recombinant UMI read abundance (log10)” value does the source give for “CCCGGACCATGGACCGGTTTTCCCGGTAATCCGTATTTGCA (site CCCGGGCCTTG)” here?
Its value is 0.

For “CCCGGACCATGGACCGGTTTTCCCGGTAATCCGTATTTGCA (site CCCGGTCCTTG)”, which “recombinant UMI read abundance (log10)” value is on record?
Its value is 0.0045.

With “CCCGGTCCATGGACCGGTTTTCCCGGTAATCCGTATTTGCG (site CCCGGTCCTAG)” as the sequence, how does the “recombinant UMI read abundance (log10)” value read?
Its value is 0.

Which “recombinant UMI read abundance (log10)” value does the source give for “CCCGGTCCATGGACCGGTTTTCCCGGTAATCCGTATTTGCG (site CCCGGTCCTCG)” here?
The value was 0.

For “CCCGGTCCATGGACCGGTTTTCCCGGTAATCCGTATTTGCG (site CCCGGTCCTGG)”, which “recombinant UMI read abundance (log10)” value is on record?
Its value is 0.

Which “recombinant UMI read abundance (log10)” value does the source give for “CCCGGTCCATGGACCGGTTTTCCCGGTAATCCGTATTTGCG (site CCCGGTCCTTG)” here?
Its value is 0.

For “CCCGGTCCATGGACCGGTTTTCCCGGTAATCCGTATTTGGA (site CCCGGTCCTTA)”, which “recombinant UMI read abundance (log10)” value is on record?
The value was 0.00376.

Which “recombinant UMI read abundance (log10)” value does the source give for “CCCGGTCCATGGACCGGTTTTCCCGGTAATCCGTATTTGGA (site CCCGGTCCTTC)” here?
Its value is 0.0256.

With “CCCGGTCCATGGACCGGTTTTCCCGGTAATCCGTATTTGGA (site CCCGGTCCTTG)” as the sequence, how does the “recombinant UMI read abundance (log10)” value read?
The value was 0.

Which “recombinant UMI read abundance (log10)” value does the source give for “CCCGGTCCATGGACCGGTTTTCCCGGTAATCCGTATTTGGA (site CCCGGTCCTTT)” here?
The value was 0.0436.

Which “recombinant UMI read abundance (log10)” value does the source give for “CCCGGTTCATGGACCGGTTTTCCCGGTAATCCGTATTTGCT (site CCCGGTTCTAG)” here?
Its value is 0.

For “CCCTATCCATGGACCGGTTTTCCCGGTAATCCGTATTTGCC (site CCCTAACCTGG)”, which “recombinant UMI read abundance (log10)” value is on record?
The value was 0.

With “CCCTATCCATGGACCGGTTTTCCCGGTAATCCGTATTTGCC (site CCCTACCCTGG)” as the sequence, how does the “recombinant UMI read abundance (log10)” value read?
The value was 0.

Which “recombinant UMI read abundance (log10)” value does the source give for “CCCTATCCATGGACCGGTTTTCCCGGTAATCCGTATTTGCC (site CCCTAGCCTGG)” here?
Its value is 0.

For “CCCTATCCATGGACCGGTTTTCCCGGTAATCCGTATTTGCC (site CCCTATCCTGG)”, which “recombinant UMI read abundance (log10)” value is on record?
The value was 0.417.

For “CCCTGCTCATGGACCGGTTTTCCCGGTAATCCGTATTTGGG (site CCCTACTCTCC)”, which “recombinant UMI read abundance (log10)” value is on record?
Its value is 0.174.

Which “recombinant UMI read abundance (log10)” value does the source give for “CCCTGCTCATGGACCGGTTTTCCCGGTAATCCGTATTTGGG (site CCCTCCTCTCC)” here?
The value was 0.027.

Which “recombinant UMI read abundance (log10)” value does the source give for “CCCTGCTCATGGACCGGTTTTCCCGGTAATCCGTATTTGGG (site CCCTGCTCTCC)” here?
Its value is 0.409.

With “CCCTGCTCATGGACCGGTTTTCCCGGTAATCCGTATTTGGG (site CCCTTCTCTCC)” as the sequence, how does the “recombinant UMI read abundance (log10)” value read?
The value was 0.018.

For “CCCTGGCCATGGACCGGTTTTCCCGGTAATCCGTATTTGCC (site CCCTAGCCTGG)”, which “recombinant UMI read abundance (log10)” value is on record?
The value was 0.

With “CCCTGGCCATGGACCGGTTTTCCCGGTAATCCGTATTTGCC (site CCCTCGCCTGG)” as the sequence, how does the “recombinant UMI read abundance (log10)” value read?
The value was 0.

With “CCCTGGCCATGGACCGGTTTTCCCGGTAATCCGTATTTGCC (site CCCTGGCCTGG)” as the sequence, how does the “recombinant UMI read abundance (log10)” value read?
The value was 0.

With “CCCTGGCCATGGACCGGTTTTCCCGGTAATCCGTATTTGCC (site CCCTTGCCTGG)” as the sequence, how does the “recombinant UMI read abundance (log10)” value read?
The value was 0.

For “CCCTTCACATGGACCGGTTTTCCCGGTAATCCGTATTTGGG (site CCCTTCACTCC)”, which “recombinant UMI read abundance (log10)” value is on record?
The value was 0.004.

For “CCCTTCACATGGACCGGTTTTCCCGGTAATCCGTATTTGGG (site CCCTTCCCTCC)”, which “recombinant UMI read abundance (log10)” value is on record?
The value was 0.0128.
